Measured values reported in patent publication US20180148418A1, “AMIDO-SUBSTITUTED CYCLOHEXANE DERIVATIVES” (Bayer Pharma Aktiengesellschaft, priority 2015, published 2018).

Tests used:
[1] = tested on: wildtype Wnt signaling cascade; assay: HEK293 TOP assay (Super TopFlash luciferase reporter, Wnt-3a stimulated); type: cell-based; conditions: Homo sapiens, HEK293, 16 h, HEK293 TOP reporter cells, Wnt3a at EC50, 16 hours
How it was run: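 HEK293 cells stably carrying Super TopFlash (TOP) run in parallel with FOP cells, 10000/well plated 24 h ahead, stimulated with recombinant human Wnt-3a. Compounds tested 50 μM to 15 nM in 3.16-fold steps in CAFTY buffer pH 7.4 with 2 mM Ca^2+ and 0.01% BSA; luciferase read-out.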

TNKS1 = target: T1, TNKS1 (Homo sapiens, UniProt O95271); assay: TNKS1 Assay B (auto-parsylation, [3H]-NAD+ SPA); type: biochemical; conditions: 6 nM TNKS1, auto-parsylation, over night at room temperature
T1 construct: purchased BPS Bioscience, San Diego, USA 80579 (TNKS1 Histone Ribosylation Assay Kit)
T1 sequence (O95271 1-1327): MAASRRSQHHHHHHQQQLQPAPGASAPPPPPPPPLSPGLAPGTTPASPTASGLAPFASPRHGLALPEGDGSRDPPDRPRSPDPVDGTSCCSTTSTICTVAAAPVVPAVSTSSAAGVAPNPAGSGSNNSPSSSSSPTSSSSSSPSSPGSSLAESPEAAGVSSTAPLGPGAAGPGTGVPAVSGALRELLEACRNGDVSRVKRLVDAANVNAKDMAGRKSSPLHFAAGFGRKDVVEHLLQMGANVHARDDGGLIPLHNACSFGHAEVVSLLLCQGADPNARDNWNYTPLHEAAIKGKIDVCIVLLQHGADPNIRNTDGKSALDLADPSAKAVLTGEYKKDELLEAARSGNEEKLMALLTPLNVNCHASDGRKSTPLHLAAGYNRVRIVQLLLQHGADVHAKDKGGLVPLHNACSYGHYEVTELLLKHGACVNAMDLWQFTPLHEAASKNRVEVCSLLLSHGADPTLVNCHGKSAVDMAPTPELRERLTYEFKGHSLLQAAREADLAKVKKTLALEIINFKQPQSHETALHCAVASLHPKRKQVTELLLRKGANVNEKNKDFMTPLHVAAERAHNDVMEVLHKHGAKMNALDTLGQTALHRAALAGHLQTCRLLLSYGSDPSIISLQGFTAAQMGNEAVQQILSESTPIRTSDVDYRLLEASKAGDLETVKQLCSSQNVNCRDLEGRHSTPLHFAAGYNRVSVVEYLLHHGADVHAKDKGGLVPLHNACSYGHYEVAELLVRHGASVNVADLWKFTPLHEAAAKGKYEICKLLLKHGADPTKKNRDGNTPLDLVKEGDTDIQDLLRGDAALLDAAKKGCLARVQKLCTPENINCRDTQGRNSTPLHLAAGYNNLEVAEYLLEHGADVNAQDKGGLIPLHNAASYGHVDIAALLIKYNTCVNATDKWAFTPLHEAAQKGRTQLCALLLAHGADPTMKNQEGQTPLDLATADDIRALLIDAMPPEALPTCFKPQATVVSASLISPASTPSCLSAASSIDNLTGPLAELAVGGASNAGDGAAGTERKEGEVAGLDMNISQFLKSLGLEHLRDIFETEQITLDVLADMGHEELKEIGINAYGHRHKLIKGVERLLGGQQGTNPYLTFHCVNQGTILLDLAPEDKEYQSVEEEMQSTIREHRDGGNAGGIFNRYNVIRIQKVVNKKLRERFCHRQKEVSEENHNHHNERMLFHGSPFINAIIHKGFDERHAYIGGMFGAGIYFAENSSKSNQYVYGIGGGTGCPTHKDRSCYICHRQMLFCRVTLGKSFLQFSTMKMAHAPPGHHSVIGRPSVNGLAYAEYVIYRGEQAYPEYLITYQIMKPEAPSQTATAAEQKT

CC1CCN(CCNC(=O)c2nc[nH]c2C(=O)N[C@H]2CC[C@@]3(CCN(c4ccccc4Cl)C3=O)CC2)CC1 [Example 260, N^5-[(trans)-2-(2-chlorophenyl)-1-oxo-2-azaspiro[4.5]dec-8-yl]-N^4-[2-(4-methylpiperidin-1-yl)ethyl]-1H-imidazole-4,5-dicarboxamide]
IC50 [1]: 0.0028 µM | IC50 (TNKS1): 0.0074 µM

CNC(=O)c1nc[nH]c1C(=O)N[C@H]1CC[C@@]2(CCN(c3ccccc3Cl)C2=O)CC1 [Example 264, N^5-[(trans)-2-(2-chlorophenyl)-1-oxo-2-azaspiro[4.5]dec-8-yl]-N^4-methyl-1H-imidazole-4,5-dicarboxamide]
IC50 [1]: 0.0023 µM | IC50 (TNKS1): 0.02 µM

Cc1cc(N2CC[C@]3(CC[C@@H](NC(=O)c4cnc5cccnn45)CC3)C2=O)c(Cl)cc1F [Example 265, N-[(trans)-2-(2-chloro-4-fluoro-5-methylphenyl)-1-oxo-2-azaspiro[4.5]dec-8-yl]imidazo[1,2-b]pyridazine-3-carboxamide]
IC50 [1]: 0.0035 µM | IC50 (TNKS1): 0.0064 µM

Cc1cc(C)n2ncc(C(=O)N[C@H]3CC[C@@]4(CCN(c5cc(C)c(F)cc5Cl)C4=O)CC3)c2n1 [Example 266, N-[(trans)-2-(2-chloro-4-fluoro-5-methylphenyl)-1-oxo-2-azaspiro[4.5]dec-8-yl]-5,7-dimethylpyrazolo[1,5-a]pyrimidine-3-carboxamide]
IC50 [1]: 0.0066 µM | IC50 (TNKS1): 0.02 µM

Cc1cc(N2CC[C@]3(CC[C@@H](NC(=O)c4cnn5cccnc45)CC3)C2=O)c(Cl)cc1F [Example 267, N-[(trans)-2-(2-chloro-4-fluoro-5-methylphenyl)-1-oxo-2-azaspiro[4.5]dec-8-yl]pyrazolo[1,5-a]pyrimidine-3-carboxamide]
IC50 [1]: 0.0032 µM | IC50 (TNKS1): 0.0099 µM

O=C(N[C@H]1CC[C@@]2(CCN(c3cccc(Cl)c3)C2=O)CC1)c1cnn2cccnc12 [Example 268, N-[(trans)-2-(3-chlorophenyl)-1-oxo-2-azaspiro[4.5]dec-8-yl]pyrazolo[1,5-a]pyrimidine-3-carboxamide]
IC50 [1]: 0.076 µM | IC50 (TNKS1): 0.54 µM

O=C(N[C@H]1CC[C@@]2(CCN(c3cccc(Cl)c3)C2=O)CC1)c1cnc2cccnn12 [Example 269, N-[(trans)-2-(3-chlorophenyl)-1-oxo-2-azaspiro[4.5]dec-8-yl]imidazo[1,2-b]pyridazine-3-carboxamide]
IC50 [1]: 0.065 µM | IC50 (TNKS1): 0.8 µM

Cc1cc(C)n2ncc(C(=O)N[C@H]3CC[C@@]4(CCN(c5cccc(Cl)c5)C4=O)CC3)c2n1 [Example 270, N-[(trans)-2-(3-chlorophenyl)-1-oxo-2-azaspiro[4.5]dec-8-yl]-5,7-dimethylpyrazolo[1,5-a]pyrimidine-3-carboxamide]
IC50 [1]: 0.0089 µM | IC50 (TNKS1): 0.16 µM

O=C(N[C@H]1CC[C@@]2(CCN(c3ccccc3Cl)C2=O)CC1)c1cnc2cccnn12 [Example 271, N-[(trans)-2-(2-chlorophenyl)-1-oxo-2-azaspiro[4.5]dec-8-yl]imidazo[1,2-b]pyridazine-3-carboxamide]
IC50 [1]: 0.0036 µM | IC50 (TNKS1): 0.015 µM

CNC(=O)c1nc[nH]c1C(=O)N[C@H]1CC[C@@]2(CCN(c3cccc(Cl)c3)C2=O)CC1 [Example 276, N^5-[(trans)-2-(3-chlorophenyl)-1-oxo-2-azaspiro[4.5]dec-8-yl]-N^4-methyl-1H-imidazole-4,5-dicarboxamide]
IC50 [1]: 0.027 µM | IC50 (TNKS1): 0.18 µM

CCNC(=O)c1nc[nH]c1C(=O)N[C@H]1CC[C@@]2(CCN(c3cccc(Cl)c3)C2=O)CC1 [Example 277, N^5-[(trans)-2-(3-chlorophenyl)-1-oxo-2-azaspiro[4.5]dec-8-yl]-N^4-ethyl-1H-imidazole-4,5-dicarboxamide]
IC50 [1]: 0.04 µM | IC50 (TNKS1): 0.26 µM

CC(C)NC(=O)c1nc[nH]c1C(=O)N[C@H]1CC[C@@]2(CCN(c3cccc(Cl)c3)C2=O)CC1 [Example 278, N^5-[(trans)-2-(3-chlorophenyl)-1-oxo-2-azaspiro[4.5]dec-8-yl]-N^4-(propan-2-yl)-1H-imidazole-4,5-dicarboxamide]
IC50 [1]: 0.09 µM | IC50 (TNKS1): 0.45 µM

O=C(NC1CC1)c1nc[nH]c1C(=O)N[C@H]1CC[C@@]2(CCN(c3cccc(Cl)c3)C2=O)CC1 [Example 279, N^5-[(trans)-2-(3-chlorophenyl)-1-oxo-2-azaspiro[4.5]dec-8-yl]-N^4-cyclopropyl-1H-imidazole-4,5-dicarboxamide]
IC50 [1]: 0.064 µM | IC50 (TNKS1): 0.29 µM

O=C(N[C@H]1CC[C@@]2(CCN(c3cccc(Cl)c3)C2=O)CC1)c1[nH]cnc1C(=O)N1CC(F)C1 [Example 280, N-[(trans)-2-(3-chlorophenyl)-1-oxo-2-azaspiro[4.5]dec-8-yl]-4-[(3-fluoroazetidin-1-yl)carbonyl]-1H-imidazole-5-carboxamide]
IC50 [1]: 0.023 µM | IC50 (TNKS1): 0.22 µM

O=C(NCC(F)(F)F)c1nc[nH]c1C(=O)N[C@H]1CC[C@@]2(CCN(c3cccc(Cl)c3)C2=O)CC1 [Example 281, N^5-[(trans)-2-(3-chlorophenyl)-1-oxo-2-azaspiro[4.5]dec-8-yl]-N^4-(2,2,2-trifluoroethyl)-1H-imidazole-4,5-dicarboxamide]
IC50 [1]: 0.043 µM | IC50 (TNKS1): 0.33 µM

COCCNC(=O)c1nc[nH]c1C(=O)N[C@H]1CC[C@@]2(CCN(c3cccc(Cl)c3)C2=O)CC1 [Example 282, N^5-[(trans)-2-(3-chlorophenyl)-1-oxo-2-azaspiro[4.5]dec-8-yl]-N^4-(2-methoxyethyl)-1H-imidazole-4,5-dicarboxamide]
IC50 [1]: 0.041 µM | IC50 (TNKS1): 0.31 µM
